Experiments:
[1] = biological target: T1, SCO7701 (C-methyltransferase) (Streptomyces coelicolor, UniProt Q9F1Y5); assay: incubation with recombinant enzyme, product identification; assay type: biochemical
T1 sequence (Q9F1Y5 1-292): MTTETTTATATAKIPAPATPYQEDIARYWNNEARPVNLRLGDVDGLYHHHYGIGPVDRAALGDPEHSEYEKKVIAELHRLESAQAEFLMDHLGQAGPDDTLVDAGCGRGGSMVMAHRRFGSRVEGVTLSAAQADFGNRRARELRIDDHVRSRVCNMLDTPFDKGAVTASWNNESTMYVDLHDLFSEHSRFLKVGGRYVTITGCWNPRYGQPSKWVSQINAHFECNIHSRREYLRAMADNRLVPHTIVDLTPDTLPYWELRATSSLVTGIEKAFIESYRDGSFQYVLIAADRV

[2] = biological target: T2, PtlA (SAV_2998), pentalenene synthase (Streptomyces avermitilis, UniProt Q82IY4); assay: as above; assay type: biochemical
T2 sequence (Q82IY4 1-336): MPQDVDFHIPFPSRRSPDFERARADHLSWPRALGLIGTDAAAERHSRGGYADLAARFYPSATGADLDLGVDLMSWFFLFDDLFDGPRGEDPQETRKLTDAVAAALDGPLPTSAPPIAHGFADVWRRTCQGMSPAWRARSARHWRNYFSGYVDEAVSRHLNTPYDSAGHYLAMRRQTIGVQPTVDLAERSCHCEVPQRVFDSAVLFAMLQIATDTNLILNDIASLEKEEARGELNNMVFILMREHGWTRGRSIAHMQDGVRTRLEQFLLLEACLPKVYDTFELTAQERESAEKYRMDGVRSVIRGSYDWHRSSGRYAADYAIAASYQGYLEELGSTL

[3] = biological target: T3, epi-isozizaene synthase (SCO5222) (Streptomyces coelicolor, UniProt Q9K499); assay: as above; assay type: biochemical
T3 sequence (Q9K499 1-361): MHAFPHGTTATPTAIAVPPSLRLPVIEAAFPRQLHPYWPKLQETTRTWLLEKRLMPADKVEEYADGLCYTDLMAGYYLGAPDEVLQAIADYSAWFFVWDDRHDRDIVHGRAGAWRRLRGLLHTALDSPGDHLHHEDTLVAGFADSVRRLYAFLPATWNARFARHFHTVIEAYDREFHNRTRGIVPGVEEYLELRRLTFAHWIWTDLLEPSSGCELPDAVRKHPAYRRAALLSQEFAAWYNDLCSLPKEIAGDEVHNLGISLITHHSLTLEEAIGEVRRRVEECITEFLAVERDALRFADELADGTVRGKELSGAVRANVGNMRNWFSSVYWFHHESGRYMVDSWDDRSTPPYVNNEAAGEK

[4] = biological target: T4, avermitilol synthase (SAV_76) (Streptomyces avermitilis, UniProt Q82RR7); assay: incubation with purified recombinant enzyme, product identification; assay type: biochemical; conditions: main product avermitilol
T4 sequence (Q82RR7 1-335): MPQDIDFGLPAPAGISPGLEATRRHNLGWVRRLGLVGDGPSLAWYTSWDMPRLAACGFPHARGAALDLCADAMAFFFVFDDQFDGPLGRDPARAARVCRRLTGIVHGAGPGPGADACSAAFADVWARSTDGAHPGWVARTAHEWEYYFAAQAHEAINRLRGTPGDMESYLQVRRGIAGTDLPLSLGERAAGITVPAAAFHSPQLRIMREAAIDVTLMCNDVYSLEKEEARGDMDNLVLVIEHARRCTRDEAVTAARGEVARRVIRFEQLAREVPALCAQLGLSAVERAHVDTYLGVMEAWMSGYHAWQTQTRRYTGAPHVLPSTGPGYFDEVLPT

PtlI (SAV_2999) = PtlI (SAV_2999) (Streptomyces avermitilis, UniProt Q82IY3); conditions: oxidation to pentalenal

Compound: C[S+](CC[C@H](N)C(=O)O)C[C@H]1O[C@@H](n2cnc3c(N)ncnc32)[C@H](O)[C@@H]1O (stereo partly drawn) [S-adenosyl-L-methionine]
- incubation with recombinant enzyme, product identification ([1]; co-substrate GPP, methyl donor): Incubation of GPP and SAM with recombinant SCO7701 gave exclusively

Compound: CC(C)=CCC/C(C)=C/COP(=O)(O)OP(=O)(O)O [compound 3, geranyl diphosphate]
- incubation with recombinant enzyme, product identification ([1]; co-substrate SAM, product 2-MeGPP): Incubation of GPP and SAM with recombinant SCO7701 gave exclusively

Compound: CC(C)=CCC/C(C)=C/CC/C(C)=C/COP(=O)(O)OP(=O)(O)O [compound 4, farnesyl diphosphate]
- incubation with recombinant enzyme, product identification [2]: Incubation of recombinant PtlA with FPP gave pentalenene
- incubation with recombinant enzyme, product identification [3]: Incubation of the recombinant protein with FPP gave as the major product
- incubation with purified recombinant enzyme, product identification [4]: Incubation of the purified recombinant SAV76 protein with FPP gave a mixture

Compound: CC1=C[C@@H]2CC(C)(C)C[C@@]23[C@H](C)CC[C@@H]13 [compound 6, pentalenene]
- expressed enzyme, product identification (PtlI (SAV_2999)): cytochrome P450 catalyzing the 3-step oxidation of pentalenene to pentalenal

From article PMC3288161 (Accounts of Chemical Research, 2011)
